# In patent US20050171195A1, “P2X7 antagonists for treating neuropathic pain” (priority 2003, published 2005):
row,SMILES,melting point [°C]
1,"Cc1ncccc1NC(=NC#N)NC(NC(=O)Cc1ccc(F)cc1)C(C)(C)C (stereo not shown) [Example 6, N-[1-({(cyanoimino)[(2-methyl-3-pyridinyl)amino]methyl}amino)-2,2-dimethylpropyl]-2-(4-fluorophenyl)acetamide]",166 to 167
2,"COc1ccc(CC(=O)NC(NC(=NC#N)Nc2ccccc2Cl)C(C)(C)C)cc1OC (stereo not shown) [Example 20, N-(1-{[[(2-chlorophenyl)amino](cyanoimino)methyl]amino}-2,2-dimethylpropyl)-2-(3,4-dimethoxyphenyl)acetamide]",135 to 136
3,"COc1cc(OC)cc(C(=O)NC(NC(=NC#N)Nc2cccnc2OC)C(C)(Cl)Cl)c1 (stereo not shown) [Example 50, N-[2,2-dichloro-1-({(cyanoimino)[(2-methoxy-3-pyridinyl)amino]methyl}amino)propyl]-3,5-dimethoxybenzamide]",198 to 199
4,"Cc1ncccc1NC(=NC#N)NC(NC(=O)Cc1ccc(F)c(F)c1)C(C)(C)C (stereo not shown) [Example 1, N-[1-({(cyanoimino)[(2-methyl-3-pyridinyl)amino]methyl}amino)-2,2-dimethylpropyl]-2-(3,4-difluorophenyl)acetamide]",58 to 60
5,"Cc1ncccc1NC(=NC#N)NC(NC(=O)CCCc1cccs1)C(C)(C)C (stereo not shown) [Example 7, N-[1-({(cyanoimino)[(2-methyl-3-pyridinyl)amino]methyl}amino)-2,2-dimethylpropyl]-4-(2-thienyl)butanamide]",66 to 68
6,"COc1ccc(CC(=O)NC(NC(=NC#N)Nc2ccccc2C)C(C)(C)C)cc1 (stereo not shown) [Example 14, N-[1-({(cyanoimino)[(2-methylphenyl)amino]methyl}amino)-2,2-dimethylpropyl]-2-(4-methoxyphenyl)acetamide]",174
7,"Cc1ccc(CC(=O)NC(NC(=NC#N)Nc2cccnc2C)C(C)(C)C)cc1F (stereo not shown) [Example 4, N-[1-({(cyanoimino)[(2-methyl-3-pyridinyl)amino]methyl}amino)-2,2-dimethylpropyl]-2-(3-fluoro-4-methylphenyl)acetamide]",75 to 77
8,"CC(C)(C)C(NC(=O)Cc1ccc2c(c1)OCCO2)NC(=NC#N)Nc1cccc2ncccc12 (stereo not shown) [Example 38, N-(1-{[(cyanoimino)(5-quinolinylamino)methyl]amino}-2,2-dimethylpropyl)-2-(2,3-dihydro-1,4-benzodioxin-6-yl)acetamide]",191 to 192
9,"CC(C)(C)C(NC(=O)CCCc1cccnc1)NC(=NC#N)Nc1cccc2ncccc12 (stereo not shown) [Example 42, N-(1-{[(cyanoimino)(5-quinolinylamino)methyl]amino}-2,2-dimethylpropyl)-4-(3-pyridinyl)butanamide]",181 to 182
10,"Cc1ccccc1NC(=NC#N)NC(NC(=O)CCCc1ccccc1)C(C)(C)C (stereo not shown) [Example 18, N-[1-({(cyanoimino)[(2-methylphenyl)amino]methyl}amino)-2,2-dimethylpropyl]-4-phenylbutanamide]",153 to 154
11,"CCc1ncccc1NC(=NC#N)NC(NC(=O)Cc1ccc(Cl)cc1)C(C)(C)C (stereo not shown) [Example 9, 2-(4-chlorophenyl)-N-[1-({(cyanoimino)[(2-ethyl-3-pyridinyl)amino]methyl}amino)-2,2-dimethylpropyl]acetamide]",112 to 114
12,"CSc1ccc(CC(=O)NC(NC(=NC#N)Nc2cccc3ncccc23)C(C)(C)C)cc1 (stereo not shown) [Example 31, N-(1-{[(cyanoimino)(5-quinolinylamino)methyl]amino}-2,2-dimethylpropyl)-2-[4-(methylthio)phenyl]acetamide]",188 to 189
13,"COc1ccc(CC(=O)NC(NC(=NC#N)Nc2cccnc2OC)C(C)(C)C)cc1OC (stereo not shown) [Example 24, N-[1-({(cyanoimino)[(2-methoxy-3-pyridinyl)amino]methyl}amino)-2,2-dimethylpropyl]-2-(3,4-dimethoxyphenyl)acetamide]",146 to 147
14,"Cc1ncccc1NC(=NC#N)NC(NC(=O)CCCCc1ccccc1)C(C)(C)C (stereo not shown) [Example 5, N-[1-({(cyanoimino)[(2-methyl-3-pyridinyl)amino]methyl}amino)-2,2-dimethylpropyl]-5-phenylpentanamide]",133 to 134
15,"COc1ccc(CCCC(=O)NC(NC(=NC#N)Nc2cccnc2C)C(C)(C)C)cc1 (stereo not shown) [Example 3, N-[1-({(cyanoimino)[(2-methyl-3-pyridinyl)amino]methyl}amino)-2,2-dimethylpropyl]-4-(4-methoxyphenyl)butanamide]",65 to 68
16,"COc1ccc(CC(=O)NC(NC(=NC#N)Nc2cc(C)ccc2C)C(C)(C)C)cc1OC (stereo not shown) [Example 21, N-[1-({(cyanoimino)[(2,5-dimethylphenyl)amino]methyl}amino)-2,2-dimethylpropyl]-2-(3,4-dimethoxyphenyl)acetamide]",93 to 94
17,"COc1ccc(CC(=O)NC(NC(=NC#N)Nc2c(F)cc(F)cc2F)C(C)(C)C)cc1OC (stereo not shown) [Example 22, N-[1-({(cyanoimino)[(2,4,6-trifluorophenyl)amino]methyl}amino)-2,2-dimethylpropyl]-2-(3,4-dimethoxyphenyl)acetamide]",170 to 171

row,SMILES,melting point [°C]
1,"COc1ccc(CC(=O)NC(NC(=NC#N)Nc2cc(Cl)ccc2F)C(C)(C)C)cc1OC (stereo not shown) [Example 23, N-(1-{[[(5-chloro-2-fluorophenyl)amino](cyanoimino)methyl]amino}-2,2-dimethylpropyl)-2-(3,4-dimethoxyphenyl)acetamide]",187 to 188
2,"COc1ccc(CC(=O)NC(NC(=NC#N)Nc2cccnc2OC)C(C)(Cl)Cl)cc1OC (stereo not shown) [Example 54, N-[2,2-dichloro-1-({(cyanoimino)[(2-methoxy-3-pyridinyl)amino]methyl}amino)propyl]-2-(3,4-dimethoxyphenyl)acetamide]",188 to 190
3,"COc1ccc(NC(=NC#N)NC(NC(=O)Cc2ccc(OC)c(OC)c2)C(C)(C)C)c(OC)n1 (stereo not shown) [Example 27, N-[1-({(cyanoimino)[(2,6-dimethoxy-3-pyridinyl)amino]methyl}amino)-2,2-dimethylpropyl]-2-(3,4-dimethoxyphenyl)acetamide]",162 to 163
4,"CC(C)(C)C(NC(=O)Cc1ccc2cccnc2c1)NC(=NC#N)Nc1cccc2ncccc12 (stereo not shown) [Example 39, N-(1-{[(cyanoimino)(5-quinolinylamino)methyl]amino}-2,2-dimethylpropyl)-2-(7-quinolinyl)acetamide]",147 to 148
5,"Cc1ncccc1NC(=NC#N)NC(NC(=O)Cc1ccc(Cl)cc1)C(C)(C)C (stereo not shown) [Example 2, 2-(4-chlorophenyl)-N-[1-({(cyanoimino)[(2-methyl-3-pyridinyl)amino]methyl}amino)-2,2-dimethylpropyl]acetamide]",180 to 181
6,"CC(C)(C)C(NC(=O)Cc1ccc(Cl)cc1)NC(=NC#N)Nc1cccnc1Cl (stereo not shown) [Example 26, 2-(4-chlorophenyl)-N-(1-{[[(2-chloro-3-pyridinyl)amino](cyanoimino)methyl]amino}-2,2-dimethylpropyl)acetamide]",174 to 175
7,"Cc1ccccc1NC(=NC#N)NC(NC(=O)Cc1ccc(Cl)cc1)C(C)(C)C (stereo not shown) [Example 17, 2-(4-chlorophenyl)-N-[1-({(cyanoimino)[(2-methylphenyl)amino]methyl}amino)-2,2-dimethylpropyl]acetamide]",181 to 182
8,"CCSc1ccc(CC(=O)NC(NC(=NC#N)Nc2cccc3ncccc23)C(C)(C)C)cc1 (stereo not shown) [Example 37, N-(1-{[(cyanoimino)(5-quinolinylamino)methyl]amino}-2,2-dimethylpropyl)-2-[4-(ethylthio)phenyl]acetamide]",189 to 190
9,"CC(C)(C)C(NC(=O)Cc1ccc2ncccc2c1)NC(=NC#N)Nc1cccc2ncccc12 (stereo not shown) [Example 40, N-(1-{[(cyanoimino)(5-quinolinylamino)methyl]amino}-2,2-dimethylpropyl)-2-(6-quinolinyl)acetamide]",150 to 151
10,"COc1ccc(NC(=NC#N)NC(NC(=O)c2ccc(Cl)cc2)C(C)(Cl)Cl)c(OC)n1 (stereo not shown) [Example 51, 4-chloro-N-[2,2-dichloro-1-({(cyanoimino)[(2,6-dimethoxy-3-pyridinyl)amino]methyl}amino)propyl]benzamide]",162 to 163
11,"CC(C)(C)C(NC(=O)Cc1ccc2ccccc2c1)NC(=NC#N)Nc1cccc2ncccc12 (stereo not shown) [Example 36, N-(1-{[(cyanoimino)(5-quinolinylamino)methyl]amino}-2,2-dimethylpropyl)-2-(2-naphthyl)acetamide]",200 to 201
12,"CSc1ccc(CC(=O)NC(NC(=NC#N)Nc2ccccc2C)C(C)(C)C)cc1 (stereo not shown) [Example 16, N-[1-({(cyanoimino)[(2-methylphenyl)amino]methyl}amino)-2,2-dimethylpropyl]-2-[4-(methylthio)phenyl]acetamide]",151 to 152
13,"CN1CCCc2c(NC(=NC#N)NC(NC(=O)Cc3ccc(Cl)cc3)C(C)(C)C)cccc21 (stereo not shown) [Example 43, 2-(4-chlorophenyl)-N-[1-({(cyanoimino)[(1-methyl-1,2,3,4-tetrahydro-5-quinolinyl)amino]methyl}amino)-2,2-dimethylpropyl]acetamide]",114 to 117
14,"COc1ccc(CC(=O)NC(NC(=NC#N)Nc2cc(F)ccc2F)C(C)(C)C)cc1OC (stereo not shown) [Example 19, N-[1-({(cyanoimino)[(2,5-difluorophenyl)amino]methyl}amino)-2,2-dimethylpropyl]-2-(3,4-dimethoxyphenyl)acetamide]",190 to 191
15,"Cc1ccccc1NC(=NC#N)NC(NC(=O)Cc1ccc2c(c1)OCO2)C(C)(C)C (stereo not shown) [Example 15, 2-(1,3-benzodioxol-5-yl)-N-[1-({(cyanoimino)[(2-methylphenyl)amino]methyl}amino)-2,2-dimethylpropyl]acetamide]",152 to 153
16,"CC(C)(C)C(NC(=O)Cc1ccc(Cl)cc1)NC(=NC#N)Nc1cccc2ncccc12 (stereo not shown) [Example 32, 2-(4-chlorophenyl)-N-(1-{[(cyanoimino)(5-quinolinylamino)methyl]amino}-2,2-dimethylpropyl)acetamide]",195 to 196
17,"CSc1ccc(CC(=O)NC(NC(=NC#N)Nc2cccnc2C)C(C)(C)C)cc1 (stereo not shown) [Example 8, N-[1-({(cyanoimino)[(2-methyl-3-pyridinyl)amino]methyl}amino)-2,2-dimethylpropyl]-2-[4-(methylthio)phenyl]acetamide]",172 to 173
